Test results from ChEMBL document CHEMBL5252612, “A novel selective estrogen receptor degrader induces cell cycle arrest in breast cancer via ERα degradation and the autophagy-lysosome pathway” (Bioorg Med Chem, 2023).
The source made the active and inactive calls. The rule behind the calls is not given here.

Assays:
T47D [1] = experiment: Induction of autophagy in human T47D cells assessed as increase in LC3 puncta formation at 1 to 10 uM incubated for 24 hrs by immunofluorescence assay; format: functional, cell-based; conditions: dose 1-10 µM
T47D [2] = experiment: Induction of autophagic flux in human T47D cells transfected with mCherry-EGFP-LC3 assessed as increase in red fluorescence at 1 to 10 uM incubated for 24 hrs by confocal microscopic analysis; format: functional, cell-based; conditions: dose 1-10 µM
T47D [3] = experiment: Induction of cell cycle arrest in human T47D cells transfected with empty vector assessed as proportion of cells at S phase at 10 uM incubated for 24 hrs by flow cytometry (reference value: 25.9%); format: functional
T47D [4] = experiment: Induction of cell cycle arrest in human T47D cells assessed as proportion of cells at S phase at 10 uM incubated for 24 hrs in presence of autophagy inhibitor, 3-MA by flow cytometry (reference value: 21.4%); format: functional
T47D [5] = experiment: Induction of cell cycle arrest in human T47D cells assessed as proportion of cells at G2 phase at 1 uM incubated for 24 hrs by flow cytometry (reference value: 24.4%); format: functional
MCF7 [6] = experiment: Induction of cell cycle arrest in human MCF7 cells assessed as proportion of cells at S phase at 1 uM incubated for 24 hrs by flow cytometry (reference value: 27.6%); format: functional
[7] = Induction of cell cycle arrest in tamoxifen-resistant human LCC2 cells assessed as proportion of cells at G1 phase at 5 uM by flow cytometry (reference value: 47.4%); format: functional
MCF7 [8] = experiment: Antitumor activity against human MCF7 cells xenografted in BALB/c nude mouse assessed as reduction in Ki67 expression in tumor at 2 to 4 mg/kg, ip administered every other day by immunohistochemistry; format: functional, organism-based; conditions: dose 2-4 mg/kg
MCF7 [9] = experiment: Induction of apoptosis and necrosis in human MCF7 cells assessed as live cells at 20 uM incubated for 48 hrs by AnnexinV-FITC/PI staining based flow cytometry (reference value: 92.97%); format: functional
[10] = Induction of cell cycle arrest in tamoxifen-resistant human LCC2 cells assessed as proportion of cells at G1 phase at 10 uM by flow cytometry (reference value: 47.4%); format: functional
T47D [11] = experiment: Induction of apoptosis and necrosis in human T47D cells assessed as live cells at 10 uM incubated for 48 hrs by AnnexinV-FITC/PI staining based flow cytometry (reference value: 96.26%); format: functional
T47D [12] = experiment: Induction of autophagy in human T47D cells overexpressing ESR1 assessed as increase in lysosome number by LysoTracker dye based confocal microscopy; format: functional, cell-based
[13] = Anticancer activity against ER-alpha positive human LCC2 cells assessed as reduction in cell viability measured after 48 hrs by CCK8 assay; format: functional, cell-based; conditions: Homo sapiens, LCC2, 48 h; read-out: IC50
[14] = Induction of cell cycle arrest in tamoxifen-resistant human LCC2 cells assessed as proportion of cells at G2 phase at 1 uM by flow cytometry (reference value: 23.7%); format: functional
[15] = biological target: T1, Estrogen receptor (Homo sapiens) (UniProt P03372); experiment: Induction of ER-alpha degradation in human T47D cells assessed as decrease in MYC protein expression at 10 uM incubated for 24 hrs by western blot analysis; format: cell-based
T1 sequence (whole entry): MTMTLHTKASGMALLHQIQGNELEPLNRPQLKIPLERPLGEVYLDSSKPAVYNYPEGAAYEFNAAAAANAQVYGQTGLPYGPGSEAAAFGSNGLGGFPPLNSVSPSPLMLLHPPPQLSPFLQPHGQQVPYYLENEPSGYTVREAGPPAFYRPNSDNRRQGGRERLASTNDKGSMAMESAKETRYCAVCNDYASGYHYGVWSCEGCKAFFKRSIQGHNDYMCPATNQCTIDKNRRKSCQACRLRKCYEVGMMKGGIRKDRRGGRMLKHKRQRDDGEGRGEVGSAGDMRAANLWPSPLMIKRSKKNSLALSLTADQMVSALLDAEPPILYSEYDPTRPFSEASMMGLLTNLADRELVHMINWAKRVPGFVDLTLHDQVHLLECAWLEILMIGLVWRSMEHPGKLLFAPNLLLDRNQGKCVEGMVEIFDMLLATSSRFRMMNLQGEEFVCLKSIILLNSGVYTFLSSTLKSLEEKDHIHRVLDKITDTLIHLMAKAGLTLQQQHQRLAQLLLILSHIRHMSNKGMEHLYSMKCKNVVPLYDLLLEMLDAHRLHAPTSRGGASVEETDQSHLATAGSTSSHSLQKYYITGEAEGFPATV

[16] = biological target: T1, Estrogen receptor (Homo sapiens); experiment: Induction of ER-alpha degradation in human T47D cells overexpressing ER-alpha assessed as decrease in MYC protein expression at 10 uM incubated for 24 hrs by western blot analysis; format: cell-based
T47D [17] = experiment: Induction of autophagy in human T47D cells assessed as upregulation of LAMP2 protein expression at 10 uM incubated for 24 hrs by western blot analysis; format: functional, cell-based
T47D [18] = experiment: Induction of autophagy in human T47D cells assessed as decrease in p62 protein expression at 5 to 10 uM incubated for 24 hrs by western blot analysis; format: functional, cell-based; conditions: dose 5-10 µM
T47D [19] = experiment: Induction of cell cycle arrest in human T47D cells overexpressing MYC assessed as proportion of cells at S phase at 10 uM incubated for 24 hrs by flow cytometry (reference value: 24.2%); format: functional
[20] = Induction of cell cycle arrest in tamoxifen-resistant human LCC2 cells assessed as proportion of cells at G2 phase at 5 uM by flow cytometry (reference value: 23.7%); format: functional
T47D [21] = experiment: Induction of autophagy in human T47D cells assessed as upregulation of MAP1LC3B expression at 10 uM incubated for 12 hrs by RNA-seq analysis; format: functional, cell-based
MCF7 [22] = experiment: Induction of apoptosis and necrosis in human MCF7 cells incubated for 48 hrs by AnnexinV-FITC/PI staining based flow cytometry (reference value: 7.03%); format: functional
T47D [23] = experiment: Induction of cell cycle arrest in human T47D cells assessed as proportion of cells at S phase at 5 uM incubated for 24 hrs by flow cytometry (reference value: 15.3%); format: functional
T47D [24] = experiment: Induction of cell cycle arrest in human T47D cells assessed as proportion of cells at G2 phase at 5 uM incubated for 24 hrs by flow cytometry (reference value: 24.4%); format: functional
[25] = biological target: T1, Estrogen receptor (Homo sapiens); experiment: Induction of ER-alpha degradation in human T47D cells assessed as decrease in ER-alpha protein expression in presence of proteasome inhibitor, MG132 by western blot analysis; format: cell-based
MCF7 [26] = experiment: Induction of cell cycle arrest in human MCF7 cells assessed as proportion of cells at G2 phase at 5 uM incubated for 24 hrs by flow cytometry (reference value: 25.5%); format: functional
T47D [27] = experiment: Induction of cell cycle arrest in human T47D cells transfected with empty vector assessed as proportion of cells at G2 phase at 10 uM incubated for 24 hrs by flow cytometry (reference value: 53%); format: functional
[28] = biological target: T1, Estrogen receptor (Homo sapiens); experiment: Induction of ER-alpha degradation in tamoxifen-resistant human LCC2 cells assessed as decrease in ER-alpha protein expression at 10 uM by western blot analysis; format: cell-based
T47D [29] = experiment: Downregulation of ER-alpha mRNA expression in human T47D cells by RT-qPCR analysis; format: functional, cell-based

In the case of `COc1ccc(N(CC(F)(F)F)S(=O)(=O)C2CC3OC2C(c2ccc(OCCN4CCCC4)cc2)=C3c2ccc(O)cc2)cc1` (centres undefined), the Activity (T47D [1]) is reported as “Active”, the Activity (T47D [2]) is reported as “Active” and the Activity (T47D [3]) is reported as 22.8%. It also gave an Activity (T47D [4]) of 14.5%, an Activity (T47D [5]) of 23.3% and an Activity (MCF7 [6]) of 15.7%. For the same compound, the Activity [7] was 71.9%, the Activity (MCF7 [8]) was “Active” and the Activity (MCF7 [9]) was 53.55%. The Activity [10] was 71.6%, the Activity (T47D [11]) was 93.26% and the Activity (T47D [12]) was “Active”. For the same compound, the IC50 [13] was 10.5 µM, the Activity [14] was 16.6% and the Activity [15] was “Active”. For the same compound, the Activity [16] was “inactive”, the Activity (T47D [17]) was “Active” and the Activity (T47D [18]) was “Active”. For the same compound, the Activity (T47D [19]) was 22.6%, the Activity [20] was 14.5% and the Activity (T47D [21]) was “Active”. For the same compound, the Activity (MCF7 [22]) was 46.45%, the Activity (T47D [23]) was 9.6% and the Activity (T47D [24]) was 16.2%. The Activity [25] was “inactive”, the Activity (MCF7 [26]) was 16.5% and the Activity (T47D [27]) was 33.7%. The Activity [28] was “Active” and the inhibition (T47D [29]) was “Active”.
